According to patent US20230002334A1, “TRPM8 MODULATORS” (Givaudan SA, priority 2019, published 2023):

Key:
[1] = target: T1, hTRPM8 (Homo sapiens, UniProt Q7Z2W7); experiment: Assay on TRPM8 modulators: calcium imaging (Fluo-4, Flexstation) in HEK293 cell line stably expressing hTRPM8; type: cell-based; conditions: HEK293 cells stably expressing hTRPM8, calcium influx, sigmoidal dose-response fit; read-out: EC50
T1 construct: expressed in transfected cells
Procedure, shortened: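 Calcium influx monitored by Fluo-4 (2.7 μM with […] probenecid, 1 h 37 °C loading) in HEK293 cells stably expressing hTRPM8, in HEPES buffer pH 7.4 with 2 mM CaCl2. Fluorescence read 15 s before and 105 s after adding serial compound dilutions. Maximal activation relative to solvent and 31.6 μM menthol; EC50 from sigmoidal fit.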

[2] = system: panelists (mouth, mucosa); experiment: Sensory studies in aqueous solution (trained panel, swilling in the mouth); type: in vivo, human; conditions: 40 ppm in aqueous solution; for time of max cooling / Max. cooling: 20 mL swilled 60 seconds; for Max. cooling / Cooling after 1 h: averaged panel score on scale 0 to 10; for Cooling after 1 h: 1 h after swilling
Experimental: The compounds as listed below in Table 2 were dissolved at a concenteration of 1 wt-% in propylene glycol. These solutions were then dispensed in appropriate quantities into deionized water containing 0.5 wt-% Poloxamer 407 (which is a hydrophilic non-ionic surfactant, e.g., commercially available from SigmaAldrich) and 0.25 wt-% Cremaphor® RH40 (obtained from BASF) as solubilizer, to obtain the desired final concentration of 40 ppm (parts per milion) of the respective compound.
A trained group of panelists evaluated the aqueous solutions containing test compound by swilling 20 mL of the solution in the mouth for 60 seconds, followed by spitting, without rinsing the mouth afterwards for the duration of the evaluation. Panelists evaluated and recorded the cooling performance as well as other sensorial and organoleptic attributes at different timepoints over a period of two hours. Cooling performance was rated on a scale from 0 to 10 with 0 being no effect and 10 being freezing. Scores were averaged for all panelists and the cooling intensity qualified as “N” for “none” (score of 0), “L” for “low” (score above 0, up to 1), “M” for “medium” (score above 1, up to 4), “S” for “strong” (score above 4, up to 8) and “E” for “extreme” (score above 8), which are provided in Table 2. […] All tasted samples developed cooling sensation starting during swilling (almost immediately upon contact with the mucosa) and before expectorating.

T1 sequence (Q7Z2W7 whole entry): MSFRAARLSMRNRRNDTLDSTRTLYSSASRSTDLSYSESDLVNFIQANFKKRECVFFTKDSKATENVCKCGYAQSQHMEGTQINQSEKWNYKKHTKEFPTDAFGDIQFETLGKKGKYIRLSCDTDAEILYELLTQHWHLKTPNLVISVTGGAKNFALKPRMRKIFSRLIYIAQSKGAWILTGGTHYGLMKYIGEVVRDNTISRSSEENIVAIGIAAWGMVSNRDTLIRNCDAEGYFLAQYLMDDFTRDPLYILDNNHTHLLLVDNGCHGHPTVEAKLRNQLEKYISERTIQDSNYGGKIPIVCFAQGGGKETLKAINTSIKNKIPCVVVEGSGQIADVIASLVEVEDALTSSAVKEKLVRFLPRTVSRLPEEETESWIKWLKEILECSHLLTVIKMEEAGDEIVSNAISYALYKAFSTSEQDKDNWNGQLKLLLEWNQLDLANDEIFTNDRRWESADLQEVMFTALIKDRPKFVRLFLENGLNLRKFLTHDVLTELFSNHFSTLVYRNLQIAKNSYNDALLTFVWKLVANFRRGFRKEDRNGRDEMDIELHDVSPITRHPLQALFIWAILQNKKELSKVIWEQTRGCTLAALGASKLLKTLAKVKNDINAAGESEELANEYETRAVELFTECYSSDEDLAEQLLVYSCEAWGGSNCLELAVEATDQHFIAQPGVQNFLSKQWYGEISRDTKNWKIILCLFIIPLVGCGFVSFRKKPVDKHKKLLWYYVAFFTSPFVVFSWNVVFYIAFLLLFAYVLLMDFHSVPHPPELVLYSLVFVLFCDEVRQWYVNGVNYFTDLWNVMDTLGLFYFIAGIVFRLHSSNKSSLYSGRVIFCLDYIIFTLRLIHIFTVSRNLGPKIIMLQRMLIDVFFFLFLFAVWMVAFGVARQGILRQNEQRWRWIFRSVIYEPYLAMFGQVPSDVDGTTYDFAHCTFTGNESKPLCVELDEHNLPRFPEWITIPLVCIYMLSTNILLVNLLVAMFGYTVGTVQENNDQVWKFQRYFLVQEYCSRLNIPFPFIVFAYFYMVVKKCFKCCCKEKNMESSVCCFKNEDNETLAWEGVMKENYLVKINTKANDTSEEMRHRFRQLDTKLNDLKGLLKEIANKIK

Row | SMILES | EC50 [1] [µM] | time of max cooling [2] [min] | Max. cooling [2] | Cooling after 1 h [2]
1 | CC(C)=CCC1(C)CC(C)C2C(C1)C(C)(C)ON2C (stereo not shown) [Compound 1, 1,3,3,5,7-pentamethyl-5-(3-methylbut-2-en-1-yl)octahydrobenzo[c]isoxazole] | 0.3 to 1 | 20 | M (“M” for “medium” (score above 1, up to 4)) | M (“M” for “medium” (score above 1, up to 4))
2 | C[C@H]1C[C@@](C)(c2cc(F)cc(F)c2)C[C@@H]2[C@@H]1N(C)OC2(C)C (racemic) [Compound 85, rac-(3aR,5R,7S,7aR)-5-(3,5-difluorophenyl)-1,3,3,5,7-pentamethyloctahydrobenzo[c]isoxazole] | < 0.05 | 10 | M (“M” for “medium” (score above 1, up to 4)) | M (“M” for “medium” (score above 1, up to 4))
3 | CC1CC(C)C2C(C1)C(C)(C)ON2C(C)C (stereo not shown) [Compound 12, 1-isopropyl-3,3,5,7-tetramethyloctahydrobenzo[c]isoxazole] | 0.3 to 1 | 5 | M (“M” for “medium” (score above 1, up to 4)) | L (“L” for “low” (score above 0, up to 1))
4 | C[C@H]1C[C@@](C)(c2cccc(C#N)c2)C[C@@H]2[C@@H]1N(C)OC2(C)C (racemic) [Compound 124, rac-3-((3aR,5R,7S,7aR)-1,3,3,5,7-pentamethyloctahydrobenzo[c]isoxazol-5-yl)benzonitrile] | < 0.05 | 5 | S (“S” for “strong” (score above 4, up to 8)) | M (“M” for “medium” (score above 1, up to 4))
5 | CC[C@@H]1C[C@H](CC)[C@@H]2[C@@H](C1)C(C)(C)ON2C(C)C (racemic) [Compound 111, rac-(3aR,5R,7S,7aR)-5,7-diethyl-1-isopropyl-3,3-dimethyloctahydrobenzo[c]isoxazole] | 0.3 to 1 | 10 | M (“M” for “medium” (score above 1, up to 4)) | L (“L” for “low” (score above 0, up to 1))
6 | CCC[C@@H]1CC[C@@H]2[C@@H](C1)C(C)(C)ON2C(C)C (racemic) [Compound 26, rac-(3aR,5R,7aR)-1-isopropyl-3,3-dimethyl-5-propyloctahydrobenzo[c]isoxazole] | 0.3 to 1 | 10 | S (“S” for “strong” (score above 4, up to 8)) | M (“M” for “medium” (score above 1, up to 4))
7 | CC1CC(C)C2C(C1)C(C)(C)ON2C (stereo not shown) [Compound 4, 1,3,3,5,7-pentamethyloctahydrobenzo[c]isoxazole] | 1 to 35 | 3 | M (“M” for “medium” (score above 1, up to 4)) | L (“L” for “low” (score above 0, up to 1))
8 | CCc1ccccc1[C@H]1C[C@@H]2[C@@H]([C@@H](C)C1)N(C(C)C)OC2(C)C (racemic) [Compound 80, rac-(3aR,5R,7S,7aR)-5-(2-ethylphenyl)-1-isopropyl-3,3,7-trimethyloctahydrobenzo[c]isoxazole] | 0.3 to 1 | – | – | –
9 | C[C@H]1C[C@@](C)(c2cc(F)ccc2F)C[C@@H]2[C@@H]1N(C)OC2(C)C (racemic) [Compound 73, rac-(3aR,5R,7S,7aR)-5-(2,5-difluorophenyl)-1,3,3,5,7-pentamethyloctahydrobenzo[c]isoxazole] | 0.05 to 0.3 | – | – | –
10 | CCC[C@@]1(C)C[C@@H]2[C@@H]([C@@H](C)C1)N(C)OC2(C)C (racemic) [Compound 49, rac-(3aR,5R,7S,7aR)-1,3,3,5,7-pentamethyl-5-propyloctahydrobenzo[c]isoxazole] | 0.3 to 1 | – | – | –
11 | C[C@H]1C[C@@](C)(c2ccc(C#N)cc2)C[C@@H]2[C@@H]1N(C)OC2(C)C (racemic) [Compound 131, rac-4-((3aR,5R,7S,7aR)-1,3,3,5,7-pentamethyloctahydrobenzo[c]isoxazol-5-yl)benzonitrile] | 0.05 to 0.3 | – | – | –
12 | C[C@H]1C[C@@](C)(c2ccc3c(c2)OCO3)C[C@@H]2[C@@H]1N(C)OC2(C)C (racemic) [Compound 109, rac-(3aR,5R,7S,7aR)-5-(benzo[d][1,3]dioxol-5-yl)-1,3,3,5,7-pentamethyloctahydrobenzo[c]isoxazole] | 0.3 to 1 | – | – | –
13 | CC1CCC2C(C1)N(C)OC2(C)C (stereo not shown) [Compound 6, 1,3,3,6-tetramethyloctahydrobenzo[c]isoxazole] | 1 to 35 | – | – | –
14 | CC(C)c1cccc([C@@]2(C)C[C@@H]3[C@@H]([C@@H](C)C2)N(C)OC3(C)C)c1 (racemic) [Compound 93, rac-(3aR,5R,7S,7aR)-5-(3-isopropylphenyl)-1,3,3,5,7-pentamethyloctahydrobenzo[c]isoxazole] | 1 to 35 | – | – | –
15 | CCCC[C@@H]1CC[C@@H]2[C@@H](C1)C(C)(C)ON2C (racemic) [Compound 27, rac-(3aR,5R,7aR)-5-butyl-1,3,3-trimethyloctahydrobenzo[c]isoxazole] | 0.3 to 1 | – | – | –
16 | CCc1ccccc1[C@H]1C[C@@H]2[C@@H]([C@@H](C)C1)N(C)OC2(C)C (racemic) [Compound 79, rac-(3aR,5R,7S,7aR)-5-(2-ethylphenyl)-1,3,3,7-tetramethyloctahydrobenzo[c]isoxazole] | 1 to 35 | – | – | –
17 | C[C@H]1C[C@@H](c2ccc(C(C)(C)C)cc2)C[C@@H]2[C@@H]1N(C)OC2(C)C (racemic) [Compound 96, rac-(3aR,5R,7S,7aR)-5-(4-(tert-butyl)phenyl)-1,3,3,7-tetramethyloctahydrobenzo[c]isoxazole] | 1 to 35 | – | – | –
18 | Cc1ccc(C#N)cc1[C@H]1C[C@@H]2[C@@H]([C@@H](C)C1)N(C)OC2(C)C (racemic) [Compound 136, rac-4-methyl-3-((3aR,5R,7S,7aR)-1,3,3,7-tetramethyloctahydrobenzo[c]isoxazol-5-yl)benzonitrile] | 0.05 to 0.3 | – | – | –
19 | Cc1ccc(C)c([C@H]2C[C@@H]3[C@@H]([C@@H](C)C2)N(C)OC3(C)C)c1 (racemic) [Compound 75, rac-(3aR,5R,7S,7aR)-5-(2,5-dimethylphenyl)-1,3,3,7-tetramethyloctahydrobenzo[c]isoxazole] | 0.3 to 1 | – | – | –
20 | Cc1ccc(C)c([C@@]2(C)C[C@@H]3[C@@H]([C@@H](C)C2)N(C)OC3(C)C)c1 (racemic) [Compound 74, rac-(3aR,5R,7S,7aR)-5-(2,5-dimethylphenyl)-1,3,3,5,7-pentamethyloctahydrobenzo[c]isoxazole] | < 0.05 | – | – | –
21 | CCN1OC(C)(C)[C@@H]2C[C@](C)(c3ccccc3)C[C@H](C)[C@H]21 (racemic) [Compound 55, rac-(3aR,5R,7S,7aR)-1-ethyl-3,3,5,7-tetramethyl-5-phenyloctahydrobenzo[c]isoxazole] | 0.05 to 0.3 | – | – | –
22 | COc1ccc([C@]2(C)C[C@@H](C)[C@@H]3[C@@H](C2)C(C)(C)ON3C)cc1 (racemic) [Compound 36, rac-(3aR,5R,7R,7aR)-5-(4-methoxyphenyl)-1,3,3,5,7-pentamethyloctahydrobenzo[c]isoxazole] | 1 to 35 | – | – | –
23 | COc1ccc(C2(C)CC(C)C3C(C2)C(C)(C)ON3C)c(OC)c1 (stereo not shown) [Compound 16, 5-(2,4-dimethoxyphenyl)-1,3,3,5,7-pentamethyloctahydrobenzo[c]isoxazole] | 0.3 to 1 | – | – | –
24 | Cc1ccc(Cl)cc1[C@H]1C[C@@H]2[C@@H]([C@@H](C)C1)N(C(C)C)OC2(C)C (racemic) [Compound 106, rac-(3aR,5R,7S,7aR)-5-(5-chloro-2-methylphenyl)-1-isopropyl-3,3,7-trimethyloctahydrobenzo[c]isoxazole] | 0.3 to 1 | – | – | –
25 | C[C@H]1C[C@@](C)(c2cc(Cl)cc(C#N)c2)C[C@@H]2[C@@H]1N(C)OC2(C)C (racemic) [Compound 129, rac-3-chloro-5-((3aR,5R,7S,7aR)-1,3,3,5,7-pentamethyloctahydrobenzo[c]isoxazol-5-yl)benzonitrile] | < 0.05 | – | – | –
26 | CC(C)N1OC(C)(C)[C@@H]2C[C@](C)(c3ccc(F)cc3)C[C@H](C)[C@H]21 (racemic) [Compound 103, rac-(3aR,5R,7S,7aR)-5-(4-fluorophenyl)-1-isopropyl-3,3,5,7-tetramethyloctahydrobenzo[c]isoxazole] | < 0.05 | – | – | –
27 | COc1cc(F)ccc1[C@@]1(C)C[C@@H]2[C@@H]([C@@H](C)C1)N(C)OC2(C)C (racemic) [Compound 99, rac-(3aR,5R,7S,7aR)-5-(4-fluoro-2-methoxyphenyl)-1,3,3,5,7-pentamethyloctahydrobenzo[c]isoxazole] | < 0.05 | – | – | –
28 | Cc1cc(F)ccc1[C@]1(C)C[C@@H](C)[C@@H]2[C@@H](C1)C(C)(C)ON2C (racemic) [Compound 35, rac-(3aR,5R,7R,7aR)-5-(4-fluoro-2-methylphenyl)-1,3,3,5,7-pentamethyloctahydrobenzo[c]isoxazole] | 1 to 35 | – | – | –
